pIC50: −log10 of the molar value. Values joined by “and” are separate entries in the source; they are usually repeats but may differ in a detail not shown here. Equal entries are not always repeated.
How the values were obtained:
Assay type in all cases: functional
[1] = Concentration required for 50% growth inhibition of the following cell lines human fibro blast cells; conditions: read-out: ID50 (the source's name)
Mus musculus [2] = assay: Antitumor activity against slow growing spontaneous mammary tumors in the DBA/2 Ha-DD mouse number of days reacquired fro tumor growth 3.8 mg/kg/day x 5 melphalan once in 5 days; set-up: unit: days
[3] = Concentration required for 50% growth inhibition of the following cell lines sarcoma S-180 cells; conditions: Mus musculus, read-out: ID50 (the source's name)
Burkitts lymphoma cell = assay: Concentration required for 50% growth inhibition of the following cell lines human burkitt lymphoma cells; conditions: read-out: ID50 (the source's name)
[4] = Concentration required for 50% growth inhibition of human breast tumor cells SW-613 human breast adenocarcinoma cells; conditions: SW613, read-out: ID50 (the source's name)
Mus musculus [5] = assay: Antitumor activity against slow growing spontaneous mammary tumors in the DBA/2 Ha-DD mouse % increased in life span 3.8 mg/kg/day x 5 melphalan + 50 mg/kg/day compound
[6] = Concentration required for 50% growth inhibition of the following cell lines human bladder carcinoma cells; conditions: read-out: ID50 (the source's name)
Mus musculus [7] = organism: Mus musculus; assay: Concentration required for 50% growth inhibition of the following cell lines mouse fibro blasts; conditions: read-out: ID50 (the source's name)
Mus musculus [8] = assay: Antitumor activity against slow growing spontaneous mammary tumors in the DBA/2 Ha-DD mouse mean life span in days at 50 mg/kg give 5 times once in 5 days
Mus musculus [9] = assay: Antitumor activity against mouse leukemia, L-1210(DBA/2 Ha Mice) % increase in life span at 3.12 mg/kg of dose per day; conditions: for ILS at 3.12 mg/kg: Mus musculus, L1210, dose 3.12 mg/kg
[10] = Concentration required for 50% growth inhibition of the following cell lines Carcinoma TA-3 cells; conditions: Mus musculus, TA3; read-out: ID50 (the source's name)
MCF7 = assay: Concentration required for 50% growth inhibition of human breast tumor cells MCF-7 human breast carcinoma cells; conditions: read-out: ID50 (the source's name)
Mus musculus [11] = assay: Antitumor activity against mouse leukemia, L-1210(DBA/2 Ha Mice) mean life span ( days) of the mouse after the dosage at 1.56 mg/kg of dose per day
L1210 = assay: Concentration required for 50% growth inhibition of the following cell lines Leukemia L-1210 cells; conditions: Mus musculus, read-out: ID50 (the source's name)
Mus musculus [12] = assay: Antitumor activity against mouse leukemia, L-1210(DBA/2 Ha Mice) mean life span (days) of the mouse after fractionated dosage(dose divided in two halves and administered in two daily injections) at 6.25 mg/kg of dose per day
HeLa = assay: Concentration required for 50% growth inhibition of the following cell lines Hela cells; conditions: Homo sapiens, read-out: ID50 (the source's name)
Mus musculus [13] = assay: antitumor activity against mouse leukemia, L-1210(DBA/2 Ha Mice) % increase in life span at 3.12 mg/kg of dose per day; conditions: L1210, dose 3.12 mg/kg
Mus musculus [14] = assay: Antitumor activity against slow growing spontaneous mammary tumors in the DBA/2 Ha-DD mouse % increased in life span 3.8 mg/kg/day x 5 melphalan + 50 mg/kg/day

With `CC(C)Nc1ncnc2c1ncn2[C@@H]1O[C@H](CO)[C@@H](O)[C@H]1O` as the molecule, how does the pIC50 [1] read?
Its pIC50 is 5.19.

What about the Tumor half growth (Mus musculus [2]) of the same molecule?
The Tumor half growth was 17 and 24.

And the pIC50 [3]?
Its pIC50 is 4.52.

What about the pIC50 (Burkitts lymphoma cell) of the same molecule?
The pIC50 was 4.57.

What about the pIC50 [4] of the same molecule?
The pIC50 was 3.82.

What about the ILS (Mus musculus [5]) of the same molecule?
The ILS was 25.5% and 60% and 63.1%.

What about the pIC50 [6] of the same molecule?
Its pIC50 is 4.96.

What about the pIC50 (Mus musculus [7]) of the same molecule?
The pIC50 was 4.70.

What about the Life span (Mus musculus [8]; 50 mg/kg) of the same molecule?
The Life span was 63.3 and 54.8 and 23.6.

What about the ILS (Mus musculus [9]; dose 3.12 mg/kg) of the same molecule?
The ILS was 14.7% and 17.4% and 37.4%.

And the pIC50 [10]?
Its pIC50 is 4.89.

What about the pIC50 (MCF7) of the same molecule?
Its pIC50 is 5.20.

And the Life span (Mus musculus [11])?
Its Life span is 7.3.

And the pIC50 (L1210)?
The pIC50 was 4.72.

Which Tumor half growth (Mus musculus [2]) does the source give for `OC[C@H]1O[C@@H](n2cnc3c(NCc4ccccc4)ncnc32)[C@H](O)[C@@H]1O` [N6-BENZYLADENOSINE] here?
Its Tumor half growth is 20 and 21.

And the pIC50 [3]?
Its pIC50 is 4.35.

What about the pIC50 (Burkitts lymphoma cell) of the same molecule?
Its pIC50 is 4.96.

What about the pIC50 [4] of the same molecule?
The pIC50 was 5.40.

What about the ILS (Mus musculus [5]) of the same molecule?
Its ILS is 10.9% and 26%.

And the Life span (Mus musculus [12])?
The Life span was 38.8.

What about the Life span (Mus musculus [8]) of the same molecule?
Its Life span is 62.6.

And the ILS at 3.12 mg/kg (Mus musculus [9])?
Its ILS at 3.12 mg/kg is 41%.

And the pIC50 [10]?
Its pIC50 is 4.85.

What about the pIC50 (MCF7) of the same molecule?
The pIC50 was 4.66.

What about the Life span (Mus musculus [11]) of the same molecule?
Its Life span is 9.7.

What about the pIC50 (L1210) of the same molecule?
Its pIC50 is 5.07.

With `C=C(C)CNc1ncnc2c1ncn2C1O[C@H](CO)[C@@H](O)[C@H]1O` (stereo partly drawn) as the molecule, how does the pIC50 [1] read?
The pIC50 was 5.82.

What about the Tumor half growth (Mus musculus [2]) of the same molecule?
The Tumor half growth was 15.

What about the pIC50 (Burkitts lymphoma cell) of the same molecule?
Its pIC50 is 4.96.

What about the pIC50 [4] of the same molecule?
The pIC50 was 5.40.

What about the ILS (Mus musculus [5]) of the same molecule?
The ILS was 19%.

What about the pIC50 [6] of the same molecule?
Its pIC50 is 5.05.

What about the pIC50 (Mus musculus [7]) of the same molecule?
The pIC50 was 4.60.

And the pIC50 [10]?
The pIC50 was 4.74.

What about the Life span (Mus musculus [11]) of the same molecule?
The Life span was 30.

What about the pIC50 (L1210) of the same molecule?
Its pIC50 is 4.72.

With `C#CCNc1ncnc2c1ncn2C1O[C@H](CO)[C@@H](O)[C@H]1O` (stereo partly drawn) as the molecule, how does the pIC50 [1] read?
The pIC50 was 5.55.

What about the Tumor half growth (Mus musculus [2]) of the same molecule?
Its Tumor half growth is 18.

And the pIC50 (Burkitts lymphoma cell)?
Its pIC50 is 5.08.

And the ILS (Mus musculus [5])?
The ILS was 60%.

And the pIC50 [6]?
The pIC50 was 5.42.

What about the pIC50 (Mus musculus [7]) of the same molecule?
The pIC50 was 5.51.

And the ILS at 3.12 mg/kg (Mus musculus [9])?
Its ILS at 3.12 mg/kg is 20%.

What about the pIC50 [10] of the same molecule?
The pIC50 was 5.60.

And the pIC50 (MCF7)?
The pIC50 was 5.80.

And the pIC50 (HeLa)?
The pIC50 was 5.46.

And the Life span (Mus musculus [11])?
The Life span was 8.2.

And the pIC50 (L1210)?
The pIC50 was 6.00.

With `C=CCNc1ncnc2c1ncn2[C@@H]1O[C@H](CO)[C@@H](O)[C@H]1O` as the molecule, how does the pIC50 [1] read?
Its pIC50 is 5.57.

And the Tumor half growth (Mus musculus [2])?
The Tumor half growth was 16 and 26 and 30.

What about the pIC50 [3] of the same molecule?
Its pIC50 is 4.70.

What about the pIC50 (Burkitts lymphoma cell) of the same molecule?
The pIC50 was 5.64.

What about the ILS at 3.12 mg/kg (Mus musculus [13]) of the same molecule?
Its ILS at 3.12 mg/kg is 8%.

And the ILS (Mus musculus [14])?
Its ILS is 42.8%.

And the pIC50 [4]?
Its pIC50 is 4.30.

What about the ILS (Mus musculus [5]) of the same molecule?
The ILS was 82.5% and 38.7%.

What about the pIC50 [6] of the same molecule?
Its pIC50 is 5.12.

What about the pIC50 (Mus musculus [7]) of the same molecule?
Its pIC50 is 4.85.

What about the Life span (Mus musculus [8]; 50 mg/kg) of the same molecule?
The Life span was 46.6 and 48.

And the pIC50 [10]?
Its pIC50 is 5.52.

What about the pIC50 (MCF7) of the same molecule?
Its pIC50 is 5.85.

And the Life span (Mus musculus [11]; 1.56 mg/kg)?
Its Life span is 8.3 and 10.

And the pIC50 (L1210)?
Its pIC50 is 4.92.
